According to US6376212B1, “Polypeptide compounds and nucleotide sequences promoting resistance to eutypa dieback in plants” (Societe des Domaines Viticoles Martell, priority 1997, dated 2002):

Assays:
[1] = target: T1, protein encoded in the VRER gene (Vigna radiata, UniProt Q9SQK0); experiment: Biochemical characteristics of the protein encoded in the VRER gene (substrate reduction with NADPH); details: in the presence of NADPH
T1 sequence (Q9SQK0 1-325): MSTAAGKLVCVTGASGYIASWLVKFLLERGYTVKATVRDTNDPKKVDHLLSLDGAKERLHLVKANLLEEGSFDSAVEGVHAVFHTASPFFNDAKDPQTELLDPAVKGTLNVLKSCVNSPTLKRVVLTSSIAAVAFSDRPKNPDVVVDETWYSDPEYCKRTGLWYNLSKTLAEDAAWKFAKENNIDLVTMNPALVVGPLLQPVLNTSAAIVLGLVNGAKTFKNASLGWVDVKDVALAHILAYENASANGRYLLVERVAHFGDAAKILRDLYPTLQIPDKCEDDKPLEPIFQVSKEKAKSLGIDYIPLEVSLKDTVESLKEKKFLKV
From the text: The protein encoded in the VRER gene was characterized biochemically. […] It was also investigated whether this protein was capable of reducing other substrates.

[2] = Viability of leaf protoplasts cultured with eutypine or eutypinol; format: cell-based, Vitis vinifera; details: Vitis vinifera, protoplasts 4.5×10^5/ml, 48 hours, read-out: Viability after 48 hours
Experimental: (§1) The protoplasts (4.5×10^5/ml) are cultured in the presence of eutypine or eutypinol for 48 hours.

[3] = test system: protoplasts of Cabernet Sauvignon; experiment: Degradation of eutypine by protoplasts (detoxification activity); format: in vitro ADME, Vitis vinifera; details: Cabernet Sauvignon (sensitive); eutypine 100 μM, 1 hour, 30° C.
Experimental: (§2) The protoplasts (10^6/ml) obtained from leaves of vitroplants are incubated for 1 hour at 30° C. in the presence of eutypine (100 μM; 0.4 kBq). Then, the phenylacetylenic compounds are extracted, separated by thin layer chromatography and the metabolic rate of eutypine is calculated after determination of the radioactivity associated with eutypine and eutypinol.

protoplasts of Merlot = experiment: as above; format: in vitro ADME, Vitis vinifera; details: Merlot (tolerant); eutypine 100 μM, 1 hour, 30° C.
Experimental: as §2

[4] = test system: protoplasts of Ugni blanc; experiment: as above; format: in vitro ADME, Vitis vinifera; details: Ugni blanc (very sensitive); eutypine 100 μM, 1 hour, 30° C.
Experimental: as §2

[5] = test system: transformed (GA, GB, GC, GD) grapevine cells; experiment: Biotest I: mortality of grapevine cells in suspension with eutypine (erythrosine); format: cell-based, Vitis vinifera cv Gamay
Experimental: (§3) In the biotest I, the percentage of dead cells was estimated by means of the erythrosine reagent. The concentration of eutypine inducing a percentage of dead cells of 50% is determined in the wildtype strain and in the transformed varieties.

[6] = test system: untransformed (GWT) grapevine cells; experiment: as above; format: cell-based, Vitis vinifera cv Gamay; details: GWT wildtype
Experimental: as §3

[7] = test system: transformed (UBT) calluses of Vitis vinifera cv Ugni blanc; experiment: Biotest II: development of calluses in the presence of eutypine; format: cell-based
Experimental: (§4) The transformation experiments were also performed on calluses of Vitis vinifera cv Ugni blanc by making use of the same experimental protocol as that used for the transformation of the calluses of Vitis vinifera cv. Gamay.
(§5) The analysis of the behaviour of the calluses of Vitis vinifera cv Ugni blanc towards eutypine was performed by using biotest II.

[8] = test system: untransformed (UBWT) calluses of Vitis vinifera cv Ugni blanc; experiment: as above; format: cell-based
Experimental: as §4, §5

grapevine cells [9] = experiment: Consumption of oxygen of grapevine cells; format: cell-based; details: activation at low dose
Experimental: Eutypine affects the functioning of the membrane systems of the grapevine cells. It causes the acidification of the cytoplasm, the reduction of leucine transport, the activation at low dose of the consumption of oxygen and its inhibition above 160 μM, and a diminution of the energy load of the cells.

mitochondria = experiment: Decoupling of oxidative phosphorylation in mitochondria; format: biochemical
Experimental: The mode of action of eutypine was confirmed by investigating its effects on the functioning of mitochondria. Eutypine acts as a decoupling agent of oxidative phosphorylation. The complete decoupling of the mitochondria is attained at concentrations of eutypine close to 150 μM.

[10] = test system: protoplasts obtained from grapevine leaves; experiment: Tolerance of leaf protoplasts to eutypine; format: cell-based; details: Cabernet Sauvignon protoplasts compared with Merlot protoplasts
From the text: the eutypine applied to simplified biological systems causes more serious symptoms in the varieties sensitive to eutypa dieback than in varieties of grapevines tolerant to this disease.

grapevine vitroplants = experiment: Application of eutypine to grapevine vitroplants; format: in vivo
grapevine cells [11] = experiment: Penetration of eutypine into grapevine cells; format: cell-based
From the text: The investigation of the mode of action of eutypine in the grapevine cells was made possible owing to the availability of eutypine in the unlabelled form and in the radioactive form, labelled with carbon 14.
This toxic molecule then accumulates in the cytoplasm by an acid trapping mechanism and, owing to its lipophilic character, inserts itself into the lipids of the membranes.

[12] = test system: untransformed calluses (GWT); experiment: Biotest II: growth of calluses on media containing eutypine; details: 500 μM of eutypine; wildtype calluses
[13] = test system: transformed calluses (GA); experiment: as above; details: 500 μM of eutypine; GA variety
[14] = test system: protoplasts obtained from leaves of vitroplants of Vitis vinifera cv. Cabernet Sauvignon; experiment: Viability of leaf protoplasts cultured with eutypine or eutypinol; format: cell-based; details: for Viability after 48 hours: protoplasts 4.5×10^5/ml
Experimental: as §1

eutypine reductase = experiment: Conversion of eutypine to eutypinol: effect of reductase inhibitors; format: biochemical, grapevine
From the text: The conversion of eutypine to eutypinol is catalyzed by a non-membrane enzyme, which specifically requires NADPH as co-factor. Its activity is reduced by reductase inhibitors such as disulfiram and parahydroxymercuribenzoic acid, confirming its membership of this group of enzymes. It has been called “eutypine reductase”. The reaction scheme is shown below. [drawing 2]

[15] = Reduction of eutypine by lysate of E. coli overexpressing the VRER protein; format: biochemical, Vigna radiata; details: NADPH, radioactive eutypine, thin layer chromatography
From the text: For that, the complementary DNA of the VRER gene was cloned in an expression vector, then transferred into the bacteria. The lysate of these bacteria which overexpress the protein corresponding to the VRER gene uses the co-factor NADPH to reduce eutypine.

Molecule: 2-fluoraldehyde
- reduction by the ER protein [1]: reduced

Molecule: O=Cc1ccncc1 [4-pyridine carbaldehyde]
- reduction by the ER protein [1]: reduced

Molecule: C=C(C)C#Cc1cc(C=O)ccc1O [Eutypine, 4-hydroxy-3-(3-methylbut-3-en-1-ynyl) benzaldehyde]
- viability at 48 h, 100 µM ([2]; 100 μM): 67%
- viability at 48 h, 200 µM ([2]; 200 μM): 0%
- Detoxification activity [3]: 10.1 pmol/min/10^5 cells
- Detoxification activity (protoplasts of Merlot): 13.6 pmol/min/10^5 cells
- Detoxification activity [4]: 7.9 pmol/min/10^5 cells
- LD50 (eutypine concentration causing the mortality of 50%) ([5]; GA transformed cells in suspension): 255 µM
- LD50 (eutypine concentration causing the mortality of 50%) ([5]; GB transformed cells in suspension): 250 µM
- LD50 (eutypine concentration causing the mortality of 50%) ([5]; GC transformed cells in suspension): 230 µM
- LD50 (eutypine concentration causing the mortality of 50%) ([5]; GD transformed cells in suspension): 225 µM
- LD50 (eutypine concentration causing the mortality of 50%) [6]: 100 µM
- Mean mass of a callus ([7]; 500 μM of eutypine, UBT): 150 mg
- growth of the calluses ([7]; 500 μM, transformed UB variety): practically unaffected
- Mean mass of a callus ([8]; 500 μM of eutypine, UBWT): 25 mg
- development of calluses ([8]; 500 μM, wildtype variety): necrose rapidly and do not develop
- concentration for inhibition of the consumption of oxygen (grapevine cells [9]): above 160 μM
- concentration for complete decoupling of the mitochondria (mitochondria): ~150 µM
- tolerance of protoplasts to eutypine [10]: lower tolerance
- symptoms of the disease (grapevine vitroplants; applied to grapevine vitroplants): reproduces certain symptoms of the disease
- ultrastructural alterations in the leaves (grapevine vitroplants; leaves of vitroplants): induces ultrastructural alterations
- penetration into the grapevine cells (grapevine cells [11]): passive diffusion
- development of calluses [12]: do not develop
- development of calluses [13]: does not exhibit necroses

Molecule: C=C(C)C#Cc1cc(CO)ccc1O [Eutypinol, 4-hydroxy-3-(3-methylbut-3-en-1-ynyl) benzylic alcohol]
- Viability after 48 hours ([14]; 200 μM): 86
- Viability after 48 hours ([14]; 500 μM): 83
- toxicity to the grapevine ([14]; even at high concentrations): does not show toxicity

Molecule: O=Cc1ccccc1 [benzaldehyde]
- reduction by the ER protein [1]: reduced

Molecule: CCCCCCCCCC=O [decylaldehyde]
- reduction by the ER protein [1]: reduced

Molecule: CCCCCC=O [hexanal]
- reduction by the ER protein [1]: reduced

Molecule: O=C(O)c1cc[c]([Hg][OH])cc1 [parahydroxymercuribenzoic acid]
- activity of eutypine reductase in the presence of reductase inhibitor (eutypine reductase): reduced

B1: protein corresponding to the VRER gene: polypeptide of 325 amino acids from Vigna radiata with eutypine reductase activity, SEQ ID NO. 4 (protein)
chain: T1 sequence (Q9SQK0 1-325)
- eutypine reductase activity [15]: exhibits a “eutypine reductase” activity in vitro
